This note sets out measurements from article PMC11413854, “Reversible Control of Native GluN2B-Containing NMDA Receptors with Visible Light” (ACS Chemical Neuroscience, 2024).

Several values for one entry are separate records, joined by “and”; a condition that tells them apart may be missing. Identical values can stand only once. Like-named read-outs stand apart in the source and are kept apart here.

The inhibition is the drop in the measured response relative to a control, in per cent.

One assay addresses T1, GluK2 kainate receptors (Rattus norvegicus, UniProt P42260, I567V/Q621R/Y571C).
T1 construct: expressed in transfected cells; host or cells: Xenopus laevis oocytes (mRNA injection)
In words: TEVC on Xenopus oocytes, GluK2 kainate receptors. Also noted: Inhibition, individual values: scale not given here. Particulars: for Inhibition, individual values: GluK2, single cells. Format: cell-based. From the text: (§1) We used cDNA coding for rat GluN1–1a (named GluN1 herein) (GenBank: U08261.1), rat GluN2A (GenBank: D13211.1), mouse GluN2B (GenBank: D10651.2), rat GluA1 flop (GenBank: M36418.2), and rat Myc-GluA2(Q)-flip (GenBank: AF164344.1) cloned into pcDNA3-based expression plasmids. GluK2 (GenBank: Z11548.1) corresponds to the fully RNA-edited version.[80] The GluN2B-ΔNTD construct is from ref[45] and GluN2B–N615K is from ref[81]. Single mutants GluN2B-Q110G and GluN1-L135H were from ref[19]. The GluA2 cDNA contains a Myc tag ([…]) fused between the signal peptide and the N-terminus sequences, and the GluA2 subunit is […] for its Q/R/N site (GluA2(Q)) to allow permeation of homomeric GluA2 receptors.[2] cDNAs coding for rat GluN2C (GenBank: M91563.1) and GluN2D subunits (GenBank: L31611.1) were in prK5 plasmids.
The expression of recombinant GluA1, GluA2(Q), and GluK2 receptors was obtained by oocyte injection of 50 nL of mRNAs (at 1 μg/μL). mRNAs were generated using the T7 (GluA1 and GluA2) and T3 (GluK2) mMessage mMachine transcription kits (Invitrogen) after cDNA linearization with the SacII restriction enzyme. The injected oocytes were stored in the same conditions as for NMDARs and used 72–96 h postinjection.
TEVC recordings were performed 1–3 days following injection. TEVC recordings were performed using an Oocyte Clamp amplifier OC-725 (Warner Instruments) and computer-controlled via a 1440A Digidata (Molecular Devices). Currents were sampled at 100 Hz and low-pass-filtered at 20 Hz using an 8-pole Bessel filter (900 Series, Frequency Devices Inc.). Data were collected with Clampfit 10.3. During the recording, the cells were continuously perfused with external recording Ringer solution at pH 7.3 (in mM: 100 NaCl, 0.3 BaCl2, 5 HEPES, and 2.5 KCl, pH adjustment to 7.3 by the addition of NaOH). The NMDA currents were induced by simultaneous application of L-glutamate and glycine (agonist solution) at saturating concentration (100 μM each), and DTPA (10 μM) to prevent receptor inhibition by ambient zinc (∼20 nM).[83] A control solution (100 μM glycine and 10 μM DTPA in Ringer pH 7.3) was used for washout of drug and test solutions. AMPA and kainate receptor currents were induced in the same conditions as NMDA currents (100 μM glutamate and glycine + 10 μM DTPA). Oocytes expressing GluK2 kainate receptors were treated with concanavalin A ([…], equivalent to 1.1 mg/mL) during 10 min before recording to decrease receptor desensitization. Unless notified, recordings were performed at a holding potential of −60 mV. All experiments were performed at room temperature.
Oocytes expressing GluK2 receptors were treated with concanavalin A ([…]) before recording to decrease
receptor desensitization.

Another assay has as its target T2, GluN1/GluN2A (Rattus norvegicus, UniProt P35439+Q00959).
T2 construct: expressed in transfected cells; host or cells: Xenopus laevis oocytes (nuclear cDNA injection)
Description: TEVC on Xenopus oocytes, GluN1/GluN2A diheteromers. Conditions: 1 µM trans-OptoNAM-3 (dark); listed as trans-OptoNAM-3. Format: cell-based.
Text: NMDARs exist as multiple subtypes in the brain that are formed by the combination of two GluN1 and either two identical (diheteromers) or different (triheteromers) GluN2 (GluN2A-D) subunits.[1] We assessed the selectivity of trans-OptoNAM-3 (dark PSS) for the other NMDAR subtypes.
as §1
Expression of recombinant NMDA receptors was obtained by oocyte nuclear coinjection of 37 nL of a mixture of cDNAs (at 30 ng/μL) coding for GluN1–1a and various GluN2 subunits (ratio 1:1). The protocol in ref[43] was followed for the expression of GluN1/GluN2A/GluN2B triheteromers. […]

The next assay addresses T3, GluN1-L135H/GluN2B (UniProt P35439+Q01097, L135H).
T3 construct: expressed in transfected cells; host or cells: Xenopus laevis oocytes (nuclear cDNA injection)
In words: TEVC on Xenopus oocytes, ifenprodil site mutant. Type of assay: cell-based, rat GluN1, mouse GluN2B. Particulars: 1 µM trans-OptoNAM-3 (dark).
Text: We finally investigated the location of the OptoNAM-3 binding-site on the receptor. […] The binding site for GluN2B-selective antagonists at the GluN1/GluN2B NTD dimer interface contains two partially overlapping pockets that accommodate GluN2B-selective NAMs of distinct chemical scaffolds:[19] either scaffolds related to ifenprodil or scaffolds related to another GluN2B-selective NAM called EVT-101.[47]
as §1, with “prK5 plasmids. […]” for “prK5 plasmids.”

T1 sequence (P42260 32-908 I567V/Y571C/Q621R): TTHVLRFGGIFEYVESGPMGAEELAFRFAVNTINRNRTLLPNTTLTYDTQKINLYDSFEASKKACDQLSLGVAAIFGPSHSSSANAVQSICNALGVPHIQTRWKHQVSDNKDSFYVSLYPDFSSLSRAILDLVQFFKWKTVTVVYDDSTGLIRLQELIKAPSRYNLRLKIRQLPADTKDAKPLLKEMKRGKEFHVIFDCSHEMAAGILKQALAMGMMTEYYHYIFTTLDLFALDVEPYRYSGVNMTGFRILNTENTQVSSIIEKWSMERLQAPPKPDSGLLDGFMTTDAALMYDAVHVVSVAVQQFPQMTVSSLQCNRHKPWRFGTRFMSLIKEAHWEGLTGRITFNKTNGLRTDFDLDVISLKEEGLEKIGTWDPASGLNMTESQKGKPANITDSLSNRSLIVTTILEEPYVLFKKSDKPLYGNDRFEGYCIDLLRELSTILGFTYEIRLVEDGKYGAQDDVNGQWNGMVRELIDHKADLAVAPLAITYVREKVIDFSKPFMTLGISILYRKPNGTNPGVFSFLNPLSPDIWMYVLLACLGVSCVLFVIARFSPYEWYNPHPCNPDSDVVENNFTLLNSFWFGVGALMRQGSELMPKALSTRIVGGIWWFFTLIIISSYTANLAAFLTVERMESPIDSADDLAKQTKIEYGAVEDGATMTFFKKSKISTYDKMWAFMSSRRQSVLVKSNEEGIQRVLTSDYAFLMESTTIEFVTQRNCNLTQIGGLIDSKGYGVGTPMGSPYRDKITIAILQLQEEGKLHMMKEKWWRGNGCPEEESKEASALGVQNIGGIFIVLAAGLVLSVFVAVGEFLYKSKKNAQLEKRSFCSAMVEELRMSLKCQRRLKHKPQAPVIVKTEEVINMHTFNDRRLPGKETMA
T2 sequence (Q00959 23-1464, other chains not shown): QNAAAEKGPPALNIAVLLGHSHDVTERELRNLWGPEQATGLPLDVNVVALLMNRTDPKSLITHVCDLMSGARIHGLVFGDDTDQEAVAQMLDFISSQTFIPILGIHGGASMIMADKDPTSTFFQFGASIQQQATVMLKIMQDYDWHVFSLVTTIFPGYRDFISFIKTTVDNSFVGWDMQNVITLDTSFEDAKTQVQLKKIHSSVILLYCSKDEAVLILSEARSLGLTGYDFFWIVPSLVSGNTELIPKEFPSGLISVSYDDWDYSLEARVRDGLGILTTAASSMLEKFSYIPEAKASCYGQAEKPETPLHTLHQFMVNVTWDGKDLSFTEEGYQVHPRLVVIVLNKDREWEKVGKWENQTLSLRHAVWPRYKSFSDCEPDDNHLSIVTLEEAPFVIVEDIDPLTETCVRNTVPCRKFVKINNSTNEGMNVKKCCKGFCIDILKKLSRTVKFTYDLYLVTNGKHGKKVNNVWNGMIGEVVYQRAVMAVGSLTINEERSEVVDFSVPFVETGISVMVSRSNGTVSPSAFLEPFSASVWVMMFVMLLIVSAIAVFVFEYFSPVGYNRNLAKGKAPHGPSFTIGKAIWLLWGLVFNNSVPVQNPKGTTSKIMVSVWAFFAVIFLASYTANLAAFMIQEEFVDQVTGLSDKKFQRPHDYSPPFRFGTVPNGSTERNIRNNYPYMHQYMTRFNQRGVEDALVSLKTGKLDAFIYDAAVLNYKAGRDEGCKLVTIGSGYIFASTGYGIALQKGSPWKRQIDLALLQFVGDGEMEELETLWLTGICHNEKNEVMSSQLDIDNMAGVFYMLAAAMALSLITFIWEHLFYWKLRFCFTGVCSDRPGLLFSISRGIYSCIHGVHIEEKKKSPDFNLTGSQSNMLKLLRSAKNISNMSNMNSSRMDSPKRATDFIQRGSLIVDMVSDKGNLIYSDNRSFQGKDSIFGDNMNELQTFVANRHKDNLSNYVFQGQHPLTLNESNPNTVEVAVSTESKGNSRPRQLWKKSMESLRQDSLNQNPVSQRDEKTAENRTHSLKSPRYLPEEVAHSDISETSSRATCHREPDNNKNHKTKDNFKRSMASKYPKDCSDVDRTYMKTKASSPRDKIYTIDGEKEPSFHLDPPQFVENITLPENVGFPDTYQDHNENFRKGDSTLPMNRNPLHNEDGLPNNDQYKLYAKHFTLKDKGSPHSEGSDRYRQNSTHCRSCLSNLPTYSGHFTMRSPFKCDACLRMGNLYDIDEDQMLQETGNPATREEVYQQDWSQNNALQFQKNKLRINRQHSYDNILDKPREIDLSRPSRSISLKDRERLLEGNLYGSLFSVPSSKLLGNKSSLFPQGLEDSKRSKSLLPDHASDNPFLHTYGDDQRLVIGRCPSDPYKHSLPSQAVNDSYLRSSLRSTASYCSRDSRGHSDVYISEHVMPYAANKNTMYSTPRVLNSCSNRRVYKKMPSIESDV
T3 sequence (Q01097 27-1482, other chains not shown): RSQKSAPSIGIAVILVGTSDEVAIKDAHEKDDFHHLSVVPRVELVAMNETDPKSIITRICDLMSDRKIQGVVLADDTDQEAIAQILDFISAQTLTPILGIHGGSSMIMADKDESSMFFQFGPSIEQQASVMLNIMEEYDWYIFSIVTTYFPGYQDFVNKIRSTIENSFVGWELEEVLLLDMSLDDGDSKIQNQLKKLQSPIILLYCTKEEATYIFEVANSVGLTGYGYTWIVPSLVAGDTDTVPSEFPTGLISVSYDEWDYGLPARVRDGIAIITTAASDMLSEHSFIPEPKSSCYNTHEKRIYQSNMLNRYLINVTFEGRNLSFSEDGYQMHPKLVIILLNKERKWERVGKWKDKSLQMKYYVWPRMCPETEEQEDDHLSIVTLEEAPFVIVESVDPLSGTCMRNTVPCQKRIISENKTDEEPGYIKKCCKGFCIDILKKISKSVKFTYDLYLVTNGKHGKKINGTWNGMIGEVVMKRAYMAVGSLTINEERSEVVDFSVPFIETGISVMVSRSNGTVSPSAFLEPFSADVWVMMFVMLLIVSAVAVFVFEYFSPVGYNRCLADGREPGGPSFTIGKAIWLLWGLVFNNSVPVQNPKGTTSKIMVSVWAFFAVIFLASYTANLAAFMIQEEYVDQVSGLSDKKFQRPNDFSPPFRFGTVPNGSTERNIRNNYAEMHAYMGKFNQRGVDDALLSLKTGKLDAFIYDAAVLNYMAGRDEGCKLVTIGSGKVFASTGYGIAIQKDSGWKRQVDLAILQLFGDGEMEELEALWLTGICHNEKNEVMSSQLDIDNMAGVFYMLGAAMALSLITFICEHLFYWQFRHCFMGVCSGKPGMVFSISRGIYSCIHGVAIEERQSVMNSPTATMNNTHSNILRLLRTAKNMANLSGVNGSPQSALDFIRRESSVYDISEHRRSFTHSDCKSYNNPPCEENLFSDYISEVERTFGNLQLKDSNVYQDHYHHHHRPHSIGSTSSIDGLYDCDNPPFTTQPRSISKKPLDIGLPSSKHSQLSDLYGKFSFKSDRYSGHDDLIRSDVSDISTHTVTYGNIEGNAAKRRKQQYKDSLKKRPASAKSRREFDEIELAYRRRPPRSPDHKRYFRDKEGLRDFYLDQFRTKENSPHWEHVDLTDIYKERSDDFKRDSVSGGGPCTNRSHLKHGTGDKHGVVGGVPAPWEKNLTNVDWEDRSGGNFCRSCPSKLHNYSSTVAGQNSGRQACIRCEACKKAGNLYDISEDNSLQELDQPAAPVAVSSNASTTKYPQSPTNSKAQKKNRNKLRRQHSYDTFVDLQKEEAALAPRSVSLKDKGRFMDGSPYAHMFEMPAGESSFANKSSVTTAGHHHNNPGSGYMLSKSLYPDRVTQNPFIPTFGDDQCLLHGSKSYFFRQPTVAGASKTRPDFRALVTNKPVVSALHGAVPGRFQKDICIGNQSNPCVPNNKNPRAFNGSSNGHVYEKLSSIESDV

In the case of `c1ccc(/N=N/c2ccc(CCNc3ccncc3)cc2)cc1` [OptoNAM-3, (E)-N-(4-(Phenyldiazenyl)phenethyl)pyridin-4-amine], the inhibition at 10 µM is -1.6% on GluK2 kainate receptors (10 µM OptoNAM-3 365 nm PSS, construct GluK2, read-out: Inhibition (%)); 3.1% at GluK2 kainate receptors (10 µM OptoNAM-3 dark PSS (trans), construct GluK2, read-out: Inhibition (%)); 3.1 ± 3.4% at GluK2 kainate receptors (10 µM, dark PSS, concanavalin A treated, read-out: inhibition of GluK2 currents). Moreover, the “Inhibition, individual values” on GluK2 kainate receptors (10 µM OptoNAM-3 dark PSS (trans) as headed, second block) is -0.01064 and 0.02708 and -0.08821 and 0.02098 and -0.02821; on GluK2 kainate receptors (10 µM OptoNAM-3 dark PSS (trans), first block) it was 0.1443 and -0.06723 and 0.004392 and 0.02857 and 0.0441. For the same molecule, at GluK2 kainate receptors (10 µM, dark PSS, concanavalin A treated), the “inhibition of GluK2 currents” value was “no effect”. Also, on GluN1/GluN2A, the “inhibition of GluN1/GluN2A” value is recorded as 2.7% ± 0.5%. Besides, the “inhibition of GluN1-L135H/GluN2B” value against GluN1-L135H/GluN2B was determined as 13.546%.
